Results as given in US11369654B2, “Application method of Dendrobium candidum in preparing medicine for treating hypertension” (Hangzhou Danhe Pharmaceutical CO., Ltd., priority 2017, dated 2022).
Several values for one entry are separate records, joined by “and”; a condition that tells them apart may be missing. Equal entries are not always repeated.

Tested on: Spontaneously Hypertensive Rats (SHR)
Experiment: Experiment 2: hypotensive effect of samples of Embodiment 1 and 2, tail artery blood pressure
Assay type: in vivo, rat
Settings: for valley-peak ratio of Systolic Blood Pressure Reduction: 24 h divided by 2 h after administration
Procedure: Rats: 10 weeks old Spontaneously Hypertensive Rats (SHR), Wistar rats were used as normal controls.
Rat Blood Pressure Measurement: BP-98A Non-invasive Tail Artery Blood Pressure Meter, Japan Soft Rotation Co., Ltd.
Group therapy is described in the following description. Blood pressure and body weight are measured and grouped after one week of adaptive feeding in all rats. […] Eight rats in each group are treated for 8 weeks. Blood pressure is observed for 1 week after withdrawal.
Blood pressure measurement: The rats are preheated at 38° C. for 5-10 minutes to avoid blood flow in the tail of the rat. The blood pressure of the rats is measured three times in a waking and quiet state, and the average value of three measurement times is used as the blood pressure of the rats. Blood pressure is measured twice a week, once 2 hours after administration and once 24 hours after administration, to observe the immediate antihypertensive effect and after 24 hours antihypertensive effect (and the peak-to-valley ratio).
The valley-peak ratio calculation of depressurization amplitude: The difference of blood pressure before treatment minus 24 hours after administration is the trough of the range of blood pressure reduction, which is the lowest point before the next administration; the difference of blood pressure before treatment and 2 hours after administration is the peak value of blood pressure reduction, that is, the maximum point of blood pressure reduction after administration. Valley value of depressurization amplitude divided by peak value of depressurization amplitude is equal to valley-peak ratio of depressurization amplitude.

[1] = 2 h after administration, treatment for 1 week, 0.8 g/kg crude drug, amlodipine 0.5 mg/kg
[2] = 2 h after administration, treatment for 1 week, 0.8 g/kg crude drug, amlodipine 0.5 mg/kg, listed as amlodipine
[3] = 2 h after administration, treatment for 2 weeks, 0.8 g/kg crude drug, amlodipine 0.5 mg/kg
[4] = 2 h after administration, treatment for 3 weeks, 0.8 g/kg crude drug, amlodipine 0.5 mg/kg
[5] = 2 h after administration, treatment for 4 weeks, 0.8 g/kg crude drug, amlodipine 0.5 mg/kg
[6] = 2 h after administration, treatment for 5 weeks, 0.8 g/kg crude drug, amlodipine 0.5 mg/kg
[7] = 2 h after administration, treatment for 6 weeks, 0.8 g/kg crude drug, amlodipine 0.5 mg/kg
[8] = 2 h after administration, treatment for 7 weeks, 0.8 g/kg crude drug, amlodipine 0.5 mg/kg
[9] = 2 h after administration, treatment for 8 weeks, 0.8 g/kg crude drug, amlodipine 0.5 mg/kg
[10] = 2 h after administration, treatment for 8 weeks, 0.8 g/kg crude drug, amlodipine 0.5 mg/kg, listed as amlodipine
[11] = 24 h after administration, treatment for 1 week, 0.8 g/kg crude drug, amlodipine 0.5 mg/kg
[12] = 24 h after administration, treatment for 2 weeks, 0.8 g/kg crude drug, amlodipine 0.5 mg/kg
[13] = 24 h after administration, treatment for 3 weeks, 0.8 g/kg crude drug, amlodipine 0.5 mg/kg
[14] = 24 h after administration, treatment for 4 weeks, 0.8 g/kg crude drug, amlodipine 0.5 mg/kg
[15] = 24 h after administration, treatment for 5 weeks, 0.8 g/kg crude drug, amlodipine 0.5 mg/kg
[16] = 24 h after administration, treatment for 6 weeks, 0.8 g/kg crude drug, amlodipine 0.5 mg/kg
[17] = 24 h after administration, treatment for 7 weeks, 0.8 g/kg crude drug, amlodipine 0.5 mg/kg
[18] = 24 h after administration, treatment for 8 weeks, 0.8 g/kg crude drug, amlodipine 0.5 mg/kg
[19] = 24 h after administration, treatment for 8 weeks, 0.8 g/kg crude drug, amlodipine 0.5 mg/kg, listed as amlodipine
[20] = stopping for 1 week after 8 weeks of treatment
[21] = stopping for 3 days after 8 weeks of treatment
[22] = stopping for 3 days after 8 weeks of treatment, listed as amlodipine
[23] = treatment for 1 week, 0.8 g/kg crude drug, amlodipine 0.5 mg/kg
[24] = treatment for 2 weeks, 0.8 g/kg crude drug, amlodipine 0.5 mg/kg
[25] = treatment for 3 weeks, 0.8 g/kg crude drug, amlodipine 0.5 mg/kg
[26] = treatment for 4 weeks, 0.8 g/kg crude drug, amlodipine 0.5 mg/kg
[27] = treatment for 5 weeks, 0.8 g/kg crude drug, amlodipine 0.5 mg/kg
[28] = treatment for 6 weeks, 0.8 g/kg crude drug, amlodipine 0.5 mg/kg
[29] = treatment for 7 weeks, 0.8 g/kg crude drug, amlodipine 0.5 mg/kg
[30] = treatment for 8 weeks, 0.8 g/kg crude drug, amlodipine 0.5 mg/kg

Compound: CCOC(=O)C1=C(COCCN)NC(C)=C(C(=O)OC)C1c1ccccc1Cl (stereo not shown) [Amlodipine, amlodipine besylate]
- diastolic blood pressure [1]: 143.2 mmHg
- systolic blood pressure [1]: 175.1 mmHg
- diastolic blood pressure [2]: 143.2±6.41 mmHg
- systolic blood pressure [2]: 175.1±4.44 mmHg
- diastolic blood pressure [3]: 145.5 mmHg
- systolic blood pressure [3]: 178.3 mmHg
- diastolic blood pressure [4]: 144.7 mmHg
- systolic blood pressure [4]: 177.8 mmHg
- diastolic blood pressure [5]: 146.2 mmHg
- systolic blood pressure [5]: 175.7 mmHg
- diastolic blood pressure [6]: 137.6 mmHg
- systolic blood pressure [6]: 174.3 mmHg
- diastolic blood pressure [7]: 143.1 mmHg
- systolic blood pressure [7]: 178.8 mmHg
- diastolic blood pressure [8]: 139.9 mmHg
- systolic blood pressure [8]: 175.8 mmHg
- diastolic blood pressure [9]: 144.7 mmHg
- systolic blood pressure [9]: 178.1 mmHg
- diastolic blood pressure [10]: 144.7±3.43 mmHg
- systolic blood pressure [10]: 178.1±2.67 mmHg
- diastolic blood pressure [11]: 162.3 mmHg
- systolic blood pressure [11]: 200.7 mmHg
- diastolic blood pressure [12]: 158.6 mmHg
- systolic blood pressure [12]: 202.6 mmHg
- diastolic blood pressure [13]: 159.0 mmHg
- systolic blood pressure [13]: 201.6 mmHg
- diastolic blood pressure [14]: 161.3 mmHg
- systolic blood pressure [14]: 209.0 mmHg
- diastolic blood pressure [15]: 161.8 mmHg
- systolic blood pressure [15]: 207.8 mmHg
- diastolic blood pressure [16]: 165.0 mmHg
- systolic blood pressure [16]: 202.8 mmHg
- diastolic blood pressure [17]: 156.3 mmHg
- systolic blood pressure [17]: 199.5 mmHg
- diastolic blood pressure [18]: 154.3 mmHg
- systolic blood pressure [18]: 202.0 mmHg
- diastolic blood pressure [19]: 154.3±5.50 mmHg
- systolic blood pressure [19]: 202.0±5.88 mmHg
- diastolic blood pressure (before treatment): 156.0 mmHg
- systolic blood pressure (before treatment): 209.8 mmHg and 209.8 ± 8.92 mmHg
- diastolic blood pressure [20]: 155.4 mmHg
- systolic blood pressure [20]: 214.2 mmHg
- diastolic blood pressure [21]: 158.7 mmHg
- systolic blood pressure [21]: 205.4 mmHg
- diastolic blood pressure [22]: 158.7±2.79 mmHg
- systolic blood pressure [22]: 205.4±1.85 mmHg
- 2-hour hypotensive amplitude (peak of systolic blood pressure reduction) [23]: 34.7 mmHg
- 24-hour hypotensive amplitude (trough of systolic blood pressure reduction) [23]: 9.1 mmHg
- valley-peak ratio of Systolic Blood Pressure Reduction [23]: 0.26
- 2-hour hypotensive amplitude (peak of systolic blood pressure reduction) [24]: 31.5 mmHg
- 24-hour hypotensive amplitude (trough of systolic blood pressure reduction) [24]: 7.2 mmHg
- valley-peak ratio of Systolic Blood Pressure Reduction [24]: 0.23
- 2-hour hypotensive amplitude (peak of systolic blood pressure reduction) [25]: 32.0 mmHg
- 24-hour hypotensive amplitude (trough of systolic blood pressure reduction) [25]: 8.2 mmHg
- valley-peak ratio of Systolic Blood Pressure Reduction [25]: 0.26
- 2-hour hypotensive amplitude (peak of systolic blood pressure reduction) [26]: 34.1 mmHg
- 24-hour hypotensive amplitude (trough of systolic blood pressure reduction) [26]: 0.8 mmHg
- valley-peak ratio of Systolic Blood Pressure Reduction [26]: 0.02
- 2-hour hypotensive amplitude (peak of systolic blood pressure reduction) [27]: 35.5 mmHg
- 24-hour hypotensive amplitude (trough of systolic blood pressure reduction) [27]: 2.0 mmHg
- valley-peak ratio of Systolic Blood Pressure Reduction [27]: 0.06
- 2-hour hypotensive amplitude (peak of systolic blood pressure reduction) [28]: 31.0 mmHg
- 24-hour hypotensive amplitude (trough of systolic blood pressure reduction) [28]: 7.0 mmHg
- valley-peak ratio of Systolic Blood Pressure Reduction [28]: 0.23
- 2-hour hypotensive amplitude (peak of systolic blood pressure reduction) [29]: 34.0 mmHg
- 24-hour hypotensive amplitude (trough of systolic blood pressure reduction) [29]: 10.3 mmHg
- valley-peak ratio of Systolic Blood Pressure Reduction [29]: 0.30
- 2-hour hypotensive amplitude (peak of systolic blood pressure reduction) [30]: 31.7 mmHg
- 24-hour hypotensive amplitude (trough of systolic blood pressure reduction) [30]: 7.8 mmHg
- valley-peak ratio of Systolic Blood Pressure Reduction [30]: 0.25
